Laboratory results as given in article PMC8291137 (ACS Medicinal Chemistry Letters, 2021).

How the values were obtained:
[1] = Shake-flask aqueous solubility in Britton-Robinson buffer

Cn1cc(-c2cc(-c3cc(Cl)cc(OCc4scnc4C(F)(F)F)c3)c(=O)n(-c3cccnc3)c2)c(=O)[nH]c1=O [Compound 21]
cytotoxicity (in words) (Vero E6 cells): no cytotoxicity
aqueous solubility (in words) [1]: good aqueous solubility
